This is an account of results in patent US12145927B2 (BRISTOL-MYERS SQUIBB COMPANY, priority 2018, dated 2024).

Broadly, the IC50 is the midpoint of a concentration-inhibition curve. The low end stands for greater potency in that assay, the high end for weaker potency in that assay.

This assay addresses T1, human IDO1 (Homo sapiens, UniProt P14902).
T1 construct: expressed in transfected cells
The experiment in a line: IDO inhibition assay in human IDO1/HEK293 cells (IDO1 HEK Human). It counts as cell-based. Particulars: HEK293 cells stably expressing human IDO1; 20 hours incubation; absorbance at 490 nm after Ehrlich reagent. The protocol: HEK293 cells were transfected with a pCDNA-based mammalian expression vector harboring human IDO1 cDNA (NM 002164.2) by electroporation. They were cultured in medium (DMEM with 10% FBS) containing 1 mg/ml G418 for two weeks. Clones of HEK293 cells that stably expressed human IDO1 protein were selected and expanded for IDO inhibition assay.
The human IDO1/HEK293 cells were seeded at 10,000 cells per 50 μL per well with RPMI/phenol red free media contains 10% FBS in a 384-well black wall clear bottom tissue culture plate (Matrix Technologies LLC) 100 nL of certain concentration of compound was then added to each well using ECHO liquid handling systems. The cells were incubated for 20 hours in 37° C. incubator with 5% CO2.
The compound treatments were stopped by adding trichloroacetic acid (Sigma-Aldrich) to a final concentration at 0.2%. The cell plate was further incubated at 50° C. for 30 minute. The equal volume supernatant (20 μL) and 0.2% (w/v) Ehrlich reagent (4-dimethylaminobenzaldehyde, Sigma-Aldrich) in glacial acetic acid were mixed in a new clear bottom 384-well plate. This plate was then incubated at RT for 30 minute. The absorbance at 490 nm was measured on Envision plate reader.
Compound IC50 values were calculated using the counts of 500 nM of a reference standard treatment as one hundred percent inhibition, and counts of no compound but DMSO treatment as zero percent inhibition.

Structures are written as SMILES.

T1 sequence (P14902 whole entry): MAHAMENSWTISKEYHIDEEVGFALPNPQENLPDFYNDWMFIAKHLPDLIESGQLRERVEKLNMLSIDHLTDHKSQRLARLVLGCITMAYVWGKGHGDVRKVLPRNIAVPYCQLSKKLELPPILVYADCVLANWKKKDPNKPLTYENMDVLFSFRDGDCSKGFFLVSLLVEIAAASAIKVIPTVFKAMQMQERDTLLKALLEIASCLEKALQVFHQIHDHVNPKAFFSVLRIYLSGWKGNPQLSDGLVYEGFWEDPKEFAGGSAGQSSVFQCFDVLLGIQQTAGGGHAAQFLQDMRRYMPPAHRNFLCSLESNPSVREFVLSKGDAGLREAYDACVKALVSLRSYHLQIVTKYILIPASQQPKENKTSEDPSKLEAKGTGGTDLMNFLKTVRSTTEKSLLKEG

For `Cc1ccc(NC(=O)Nc2cc(-c3ccccc3C(=O)O)cc3c2OC(C)(C)C3c2ccccc2)cc1` (racemic) [Example 124, (±)-2-(2,2-Dimethyl-3-phenyl-7-(3-(p-tolyl)ureido)-2,3-dihydrobenzofuran-5-yl) benzoic acid], the midpoint of inhibition, the IC50, lay at 77 nM. That is a double-digit nanomolar value.

`CC1CCOc2c(Nc3nc4ccccc4o3)cc(-c3ccccc3-c3nnn[nH]3)cc2C1c1ccccc1` (single isomer, unassigned) [Example 51, N-(7-(2-(1H-tetrazol-5-yl)phenyl)-4-methyl-5-phenyl-2,3,4,5-tetrahydrobenzo[b]oxepin-9-yl)benzo[d]oxazol-2-amine] yielded an IC50 of 3.8 nM.

As to `O=C(Nc1ccccc1F)Nc1cc(-c2ccccc2-c2nnn[nH]2)cc2c1OCCCC2C1CC1` (single isomer, unassigned) [38 (En. 2), 1-(7-(2-(1H-tetrazol-5-yl)phenyl)-5-cyclopropyl-2,3,4,5-tetrahydrobenzo[b]oxepin-9-yl)-3-(2-fluorophenyl)urea], the IC50 was 19.4 nM.

Regarding `c1ccc(C2CCCOc3c(Nc4ccnc5ccnn45)cc(-c4ccccc4-c4nnn[nH]4)cc32)cc1` (single isomer, unassigned) [Example 81, N-(7-(2-(1H-tetrazol-5-yl)phenyl)-5-phenyl-2,3,4,5-tetrahydrobenzo[b]oxepin-9-yl) pyrazolo[1,5-a]pyrimidin-7-amine], the midpoint of inhibition, the IC50, lay at 2510 nM.

In turn, `c1ccc(C2CCCOc3c(Nc4nc5ccccc5s4)cc(-c4ccccc4-c4nnn[nH]4)cc32)cc1` (single isomer, unassigned) [64 (En. 1), N-(7-(2-(1H-tetrazol-5-yl)phenyl)-5-phenyl-2,3,4,5-tetrahydrobenzo[b]oxepin-9-yl) benzo[d]thiazol-2-amine] gave an IC50 of 422 nM.

As for `Cc1ccc(NC(=O)Nc2cc(-c3ccccc3-c3nnn[nH]3)cc3c2OCCCC3C2CC2)cc1` (racemic) [Example 36, 1-(7-(2-(1H-tetrazol-5-yl)phenyl)-5-cyclopropyl-2,3,4,5-tetrahydrobenzo[b]oxepin-9-yl)-3-(p-tolyl)urea], the IC50 came to 7.6 nM.

As for `Cc1ccc(NC(=O)Nc2cc(-c3ccccc3-c3nnn[nH]3)cc3c2O[C@@H](C)[C@@H]3CCC(F)(F)F)cc1` (relative stereo) [Example 118, rel-1-((2R,3S)-5-(2-(2H-tetrazol-5-yl)phenyl)-2-methyl-3-(3,3,3-trifluoropropyl)-2,3-dihydrobenzofuran-7-yl)-3-(p-tolyl)urea], the half-inhibitory concentration (IC50) came out at 23 nM.

With `Cc1ccc(CC(=O)Nc2cc(-c3ccccc3-c3nnn[nH]3)cc3c2OCCCC3c2ccccc2)cc1` (racemic) [Example 2-1, N-(7-(2-(1H-tetrazol-5-yl)phenyl)-5-phenyl-2,3,4,5-tetrahydrobenzo[b]oxepin-9-yl)-2-(p-tolyl)acetamide], the IC50 is 98.2 nM.

Regarding `O=C(Cc1ccccc1F)Nc1cc(-c2ccccc2-c2nnn[nH]2)cc2c1OCCCC2C1CC1` (single isomer, unassigned) [40 (En. 2), N-(7-(2-(1H-tetrazol-5-yl)phenyl)-5-cyclopropyl-2,3,4,5-tetrahydrobenzo[b]oxepin-9-yl)-2-(2-fluorophenyl)acetamide], the IC50 was 58.6 nM.

Turning to `C=C[C@H]1Oc2c(NC(=O)Nc3ccc(C)cc3)cc(-c3ccccc3-c3nnn[nH]3)cc2[C@@H]1c1ccccc1` (single isomer, unassigned) [Example 88, 1-((trans)-5-(2-(1H-tetrazol-5-yl)phenyl)-3-phenyl-2-vinyl-2,3-dihydrobenzofuran-7-yl)-3-(p-tolyl)urea], the midpoint of inhibition, the IC50, lay at 105 nM.

In turn, `Cc1ccc(NC(=O)Nc2cc(-c3cc(F)ccc3C(=O)O)cc3c2O[C@@H](C)[C@H]3CCC(F)(F)F)cc1` (relative stereo) [Example 117, rel-4-fluoro-2-((2R,3R)-2-methyl-7-(3-(p-tolyl)ureido)-3-(3,3,3-trifluoropropyl)-2,3-dihydrobenzofuran-5-yl)benzoic acid] yielded an IC50 of 2500 nM.

As to `O=C(Nc1ccccc1F)Nc1cc(-c2ccccc2-c2nnn[nH]2)cc2c1OCCCC2c1ccccc1` (single isomer, unassigned) [10 (En.2), 1-(7-(2-(1H-tetrazol-5-yl)phenyl)-5-phenyl-2,3,4,5-tetrahydrobenzo[b]oxepin-9-yl)-3-(2-fluorophenyl)urea], the IC50 was 41.4 nM.

With `Cc1ccc(NC(=O)Nc2cc(-c3ccccc3C(N)=O)cc3c2OCCCC3c2ccccc2)cc1` (stereo not drawn) [Example 7, 2-(5-phenyl-9-(3-(p-tolyl)ureido)-2,3,4,5-tetrahydrobenzo[b]oxepin-7-yl)benzamide], the midpoint of inhibition, the IC50, lay at 40.8 nM.

Regarding `Cc1ccc(CC(=O)Nc2cc(-c3ccccc3-c3nnn[nH]3)cc3c2OCCCC3C2CC2)cc1` (single isomer, unassigned) [37 (En. 2), N-(7-(2-(1H-tetrazol-5-yl)phenyl)-5-cyclopropyl-2,3,4,5-tetrahydrobenzo[b]oxepin-9-yl)-2-(p-tolyl)acetamide], the IC50 stood at 30.8 nM.

Turning to `O=C(Nc1ccc(Cl)cc1F)Nc1cc(-c2ccccc2-c2nnn[nH]2)cc2c1OCCCC2C1CC1` (single isomer, unassigned) [41 (En. 2), 1-(7-(2-(1H-tetrazol-5-yl)phenyl)-5-cyclopropyl-2,3,4,5-tetrahydrobenzo[b]oxepin-9-yl)-3-(4-chloro-2-fluorophenyl)urea], the IC50 is 93.8 nM.

Take `O=C(Nc1ccccc1F)Nc1cc(-c2ccccc2-c2nnn[nH]2)cc2c1OCCCC2c1ccc(F)cc1` (stereo not drawn) [Example 70, 1-(7-(2-(1H-tetrazol-5-yl)phenyl)-5-(4-fluorophenyl)-2,3,4,5-tetrahydrobenzo[b]oxepin-9-yl)-3-(2-fluorophenyl)urea]: the IC50 came out at 28.2 nM.

For the compound `c1ccc(C2CCCOc3c(Nc4nc5ccccc5o4)cc(-c4ccccc4-c4nnn[nH]4)cc32)cc1` (racemic) [Example 53, N-(7-(2-(1H-tetrazol-5-yl)phenyl)-5-phenyl-2,3,4,5-tetrahydrobenzo[b]oxepin-9-yl) benzo[d] oxazol-2-amine], the IC50 stood at 4.2 nM. This IC50 is about 6.7-fold lower than that of the compound before.

For `c1ccc(C2CCCOc3c(Nc4ccn5nccc5n4)cc(-c4ccccc4-c4nnn[nH]4)cc32)cc1` (single isomer, unassigned) [84 (En. 2), N-(7-(2-(1H-tetrazol-5-yl)phenyl)-5-phenyl-2,3,4,5-tetrahydrobenzo[b]oxepin-9-yl) pyrazolo[1,5-a]pyrimidin-5-amine], the IC50 came out at 25.8 nM. Compared with the last compound, the IC50 is about 6.1-fold higher.

`C=CC1Oc2c(NC(=O)Nc3ccccc3F)cc(-c3ccccc3-c3nnn[nH]3)cc2C1c1ccccc1` (racemic) [Example 95] had an IC50 of 88 nM.

The compound `c1ccc(C2CCCOc3c(Nc4nc5ccccc5s4)cc(-c4ccccc4-c4nnn[nH]4)cc32)cc1` (single isomer, unassigned) [64 (En. 2), N-(7-(2-(1H-tetrazol-5-yl)phenyl)-5-phenyl-2,3,4,5-tetrahydrobenzo[b]oxepin-9-yl) benzo[d]thiazol-2-amine] came in with an IC50 of 17 nM.

Compound `CC1(C)Oc2c(NC(=O)Nc3ccc(C(F)(F)F)nc3)cc(-c3ccccc3-c3nnn[nH]3)cc2C1c1ccccc1` (racemic) [Example 127, (±)-1-(5-(2-(1H-Tetrazol-5-yl)phenyl)-2,2-dimethyl-3-phenyl-2,3-dihydrobenzofuran-7-yl)-3-(6-(trifluoromethyl)pyridin-3-yl)urea] returned an IC50 of 2100 nM.

In turn, `C=C(C)[C@H]1Oc2c(NC(=O)Nc3ccc(C)cc3)cc(-c3ccccc3-c3nnn[nH]3)cc2[C@@H]1c1ccccc1` (racemic) [Example 93, (+/−)-1-((trans)-5-(2-(1H-tetrazol-5-yl)phenyl)-3-phenyl-2-(prop-1-en-2-yl)-2,3-dihydrobenzofuran-7-yl)-3-(p-tolyl)urea] registered an IC50 of 9.1 nM.

`Fc1ccc2oc(Nc3cc(-c4ccccc4-c4nnn[nH]4)cc4c3OCCCC4C3CC3)nc2c1` (stereo not drawn) [Example 27, N-(7-(2-(1H-tetrazol-5-yl)phenyl)-5-cyclopropyl-2,3,4,5-tetrahydrobenzo[b]oxepin-9-yl)-5-fluorobenzo[d]oxazol-2-amine] had an IC50 of 26.4 nM. This IC50 lies about 2.9-fold higher than the previous one.

For `COCC(CC(=O)O)c1cc(Nc2ccc(C#N)cc2)c2c(c1)C(C1CC1)CCCO2` (single isomer, unassigned) [131 (dia. 1), 3-(9-(4-Cyanophenylamino)-5-cyclopropyl-2,3,4,5-tetrahydrobenzo[b]oxepin-7-yl)-4-methoxybutanoic acid], the IC50 amounted to 25.6 nM.

In turn, `Cc1ccc(-c2nnn[nH]2)c(-c2cc(NC(=O)Nc3ccccc3F)c3c(c2)C(C2CC2)CCCO3)c1` (single isomer, unassigned) [Example 34-1] gave an IC50 of 66 nM.

For `Fc1cnc(Nc2cc(-c3ccccc3-c3nnn[nH]3)cc3c2OCCCC3c2ccccc2)nc1` (single isomer, unassigned) [63 (En-2), N-(7-(2-(1H-tetrazol-5-yl)phenyl)-5-phenyl-2,3,4,5-tetrahydrobenzo[b]oxepin-9-yl)-5-fluoropyrimidin-2-amine], the IC50 amounted to 11.6 nM.

Take `Cc1ccc(NC(=O)Nc2cc(-c3ccccc3S(=O)(=O)NC(=O)c3ccccc3)cc3c2OCCCC3c2ccccc2)cc1` (single isomer, unassigned) [Example 61, N-((2-(5-phenyl-9-(3-(p-tolyl)ureido)-2,3,4,5-tetrahydrobenzo[b]oxepin-7-yl)phenyl)sulfonyl)benzamide]: the IC50 stood at 2290 nM.
